The record followed here is patent US20250213478A1, “CATIONIC LIPID HAVING DISULFIDE BOND, LIPID MEMBRANE STRUCTURE INCLUDING SAME, NUCLEIC ACID INTRODUCTION AGENT AND PHARMACEUTICAL COMPOSITION CONTAINING ANY ONE OF SAME, METHOD FOR INTRODUCING NUCLEIC ACID INTO CELL OR TARGET CELL, AND METHOD FOR PRODUCING CELLULAR PHARMACEUTICAL” (NOF Corporation, priority 2022, published 2025).

The nature of data set [1]: Particle size, PdI and zeta potential of mRNA-encapsulating LNPs (dynamic light scattering). Format: physicochemical. The settings on record: mRNA-encapsulating LNP, cationic lipid:DOPC:Chol=55:5:40 + about 1 mol DMG-PEG2k; for PdI / particle size: dynamic light scattering; for zeta potential: physiological pH. Put shortly:
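LNPs were made from cationic lipid:DOPC:Chol at 55:5:40 molar ratio plus about 1 mol DMG-PEG2k, microfluidically mixed with mRNA in malate buffer (20 mM, pH 3.0, 30 mM NaCl). They were ultrafiltered into PBS at 2 mM lipid. Size, PdI and zeta potential were measured by dynamic light scattering.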

Data set [2] in a line: Measurement of Liposomal pKa of LNP (TNS fluorescence). Format: physicochemical. The settings on record: LNP without nucleic acid, cationic lipid:DOPC:Chol=52.5:7.5:40 + about 1.5 mol DMG-PEG2k; pH at which relative TNS fluorescence intensity was 50%. An outline of the steps: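 Nucleic-acid-free LNPs (cationic lipid:DOPC:Chol 52.5:7.5:40, ~1.5 mol DMG-PEG2k) prepared by microfluidic mixing, diluted to 0.5 mM lipid, mixed with TNS in 150 mM NaCl buffers spanning pH 3.0–10.0. Fluorescence at ex 321/em 447 nm normalised 0–100% per LNP; pKa is the pH at 50%.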

Data set [3] deals with HeLa cells. Briefly: Evaluation of in vitro gene expression in HeLa cell (luciferase mRNA-encapsulating LNP). Format: cell-based, human. Particulars: for cumulative luciferase luminescence intensity over 24 hr: luciferase mRNA 0.4 μg per dish, LNP cationic lipid:DOPC:Chol:DMG-PEG2k=55:5:40:1; for gene expression activity compared to Comparative Example: result in words. Put shortly:
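LNP (cationic lipid:DOPC:Chol:DMG-PEG2k=55:5:40:1) carrying luciferase mRNA, 0.4 μg mRNA per 3.5 cm dish, added to HeLa cells in D-MEM with 0.1 mM D-luciferin. Luminescence read 2 min every hour in an incubator luminometer; value is cumulative luminescence over 24 hr.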

The subject of data set [4] is BALB/c mouse. Nature of the data set: Evaluation of in vivo gene expression (luciferase mRNA-encapsulating LNP, IVIS of isolated organs). Particulars: for relative value based on Comparative Example (amount of luminescence in spleen): relative to O-Ph-P4C2 LNP = 1.00; for gene expression activity in the spleen compared to Comparative Example: result in words; for amount of luminescence in each organ: heart / amount of luminescence in each organ: kidney / amount of luminescence in each organ: liver / amount of luminescence in each organ: lung / amount of luminescence in each organ: spleen: tail vein, mRNA 0.05 mg/kg, 4.5 hr + 15 min after administration; for amount of luminescence in each organ: spleen: spleen (Table 7). As to the method:
LNP encapsulating mRNA that expresses luciferase (cationic lipid:DOPC:Chol:DMG-PEG2k=55:5:40:1 (molar ratio)) was prepared by the method described in [Experimental Example 2], 1.
The prepared each mRNA-encapsulating LNP dispersion was administered from the tail vein of BALB/c mouse (male, 5-week-old). The dose of mRNA was set to 0.05 mg per 1 kg body weight of the mouse, and the dose of the mRNA-encapsulating LNP dispersion was set to 10 μL per 1 g body weight of the mouse. After 4.5 hr from the administration of the mRNA-encapsulating LNP dispersion, a PBS solution of D-luciferin potassium was administered into the abdominal cavity of the mouse. The dose of D-luciferin potassium was set to 3 mg per mouse, and the dose of the PBS solution of D-luciferin potassium was set to 200 μL per mouse. After 15 min from the administration of the PBS solution of D-luciferin potassium, the mouse was euthanized, and the liver, spleen, kidney, heart, and lung were isolated. The luminescence in each organ was quantified using an in vivo imaging system (IVIS) with an exposure of 10 sec. The amount of luminescence in each organ was quantified by image analysis using Live Imaging software attached to IVIS. The amount of luminescence (photons/sec) was calculated from the acquired image and used as an index of gene expression activity. “E+0a” (a: integer) indicated in Table 7 and Table 8 means “10^a”. For example, “1.0E+02” means “1.0×10^2”. In Comparative Example, the cationic lipid described in the aforementioned Table 3 were used.

Take `CCCCCCCC/C=C\CCCCCCCC(=O)OCC(C)(COC(=O)CCCCCCC/C=C\CCCCCCCC)C(=O)Oc1ccc(CC(=O)OCCSSCCOC(=O)NCCN(CC)CC)cc1` [Example 34]: in data set [1], the PdI is listed as 0.060, the particle size came to 63 nm and the zeta potential is 0.4 mV. Moreover, the pKa in data set [2] was 7.2. Also, in data set [3], the “cumulative luciferase luminescence intensity over 24 hr” value is listed as 1.08E+08 RLU and the “gene expression activity compared to Comparative Example” value was “superior gene expression activity”. For the same molecule, in data set [4], the “relative value based on Comparative Example (amount of luminescence in spleen)” value (shortened to “relative value based”) stood at 1.27, the “gene expression activity in the spleen compared to Comparative Example” value is given as “superior gene expression activity”, the “amount of luminescence in each organ: heart” value (shortened to “amount of luminescence … heart”) stood at 6.83E+05 photons/sec and the “amount of luminescence in each organ: kidney” value (from here on “amount … kidney”) came out at 5.04E+05 photons/sec. For the same molecule, in data set [4], the “amount of luminescence in each organ: liver” value (“amount of luminescence … liver” below) was found to be 2.52E+07 photons/sec, the “amount of luminescence in each organ: lung” value (from here on “amount of luminescence … lung”) amounted to 6.02E+05 photons/sec and the “amount of luminescence in each organ: spleen” value (from here on “amount … in each organ: spleen”) was 1.37E+07 photons/sec.
`CCCCCCCCCCCCCC(=O)OCC(C)(COC(=O)CCCCCCCCCCCCC)C(=O)Oc1ccc(CC(=O)OCCSSCCOC(=O)NCCN(CC)CC)cc1` [Example 31]: in data set [1], the PdI was found to be 0.072, the particle size was 59 nm and the zeta potential is given as 4.1 mV. Moreover, the pKa in data set [2] came out at 7.6. Besides, in data set [3], the “cumulative luciferase luminescence intensity over 24 hr” value is given as 1.58E+08 RLU and the “gene expression activity compared to Comparative Example” value is recorded as “superior gene expression activity”. For the same molecule, in data set [4], the “relative value based” value worked out at 1.74, the “gene expression activity in the spleen compared to Comparative Example” value was “superior gene expression activity”, the “amount of luminescence … heart” value was determined as 7.26E+05 photons/sec and the “amount … kidney” value was found to be 5.53E+05 photons/sec. Further, in data set [4], the “amount of luminescence … liver” value is given as 2.62E+07 photons/sec, the “amount of luminescence … lung” value came to 9.16E+05 photons/sec and the “amount … in each organ: spleen” value stood at 1.88E+07 photons/sec.
As for `CCCCCCCCCCCCCCCCC(CCCCCCCCCCCCCCCC)C(=O)Oc1ccc(CC(=O)OCCSSCCOC(=O)N(C)CCCN(C)C)cc1` [Example 24], in data set [1], the PdI is on record as 0.109, the particle size turned out to be 96 nm and the zeta potential is 12.2 mV. In data set [2], the pKa came to 8.2. Also, in data set [3], the “cumulative luciferase luminescence intensity over 24 hr” value worked out at 6.22E+07 RLU and the “gene expression activity compared to Comparative Example” value is recorded as “superior gene expression activity”. Besides, in data set [4], the “relative value based” value was determined as 0.05, the “amount of luminescence … heart” value is listed as 4.78E+05 photons/sec, the “amount … kidney” value is 4.84E+05 photons/sec and the “amount of luminescence … liver” value turned out to be 5.08E+05 photons/sec. In addition, in data set [4], the “amount of luminescence … lung” value was 5.58E+05 photons/sec and the “amount … in each organ: spleen” value was 5.09E+05 photons/sec.
As to `CCCCCCCCCCCCCCCCC(CCCCCCCCCCCCCCCC)C(=O)Oc1ccc(CC(=O)OCCSSCCOC(=O)NCCCN(C)C)cc1` [Example 23], in data set [1], the PdI is listed as 0.160, the particle size is 94 nm and the zeta potential is given as 13.8 mV. The pKa in data set [2] came to 8.3. In addition, in data set [3], the “cumulative luciferase luminescence intensity over 24 hr” value turned out to be 2.05E+07 RLU and the “gene expression activity compared to Comparative Example” value is “superior gene expression activity”. In data set [4], the “relative value based” value was 0.04, the “amount … kidney” value was determined as 1.53E+05 photons/sec, the “amount of luminescence … liver” value is 2.36E+05 photons/sec and the “amount of luminescence … lung” value turned out to be 5.02E+05 photons/sec. The “amount … in each organ: spleen” value in data set [4] was found to be 4.45E+05 photons/sec.
As to `CCCCCCCCCCCCCCCCC(CCCCCCCCCCCCCCCC)C(=O)Oc1ccc(CC(=O)OCCSSCCOC(=O)NCCN(C(C)C)C(C)C)cc1` [Example 28], in data set [1], the PdI amounted to 0.070, the particle size is on record as 66 nm and the zeta potential is recorded as −1.4 mV. In addition, in data set [2], the pKa was 6.7. In data set [3], the “cumulative luciferase luminescence intensity over 24 hr” value is 4.57E+07 RLU and the “gene expression activity compared to Comparative Example” value is listed as “superior gene expression activity”. Also, in data set [4], the “relative value based” value came out at 0.16, the “amount of luminescence … heart” value is listed as 6.88E+05 photons/sec, the “amount … kidney” value came out at 6.48E+05 photons/sec and the “amount of luminescence … liver” value came to 9.90E+07 photons/sec. Moreover, in data set [4], the “amount of luminescence … lung” value came out at 9.12E+05 photons/sec and the “amount … in each organ: spleen” value is reported as 1.68E+06 photons/sec.
For `CCCCCCCC/C=C\CCCCCCCC(=O)OCC(C)(COC(=O)CCCCCCC/C=C\CCCCCCCC)C(=O)Oc1ccc(CC(=O)OCCSSCCOC(=O)NCCN(C)CCO)cc1` [Example 36], in data set [1], the PdI worked out at 0.090, the particle size was determined as 92 nm and the zeta potential is reported as −2.5 mV. In addition, the pKa in data set [2] turned out to be 7.3. In addition, in data set [3], the “cumulative luciferase luminescence intensity over 24 hr” value amounted to 7.66E+07 RLU and the “gene expression activity compared to Comparative Example” value was “superior gene expression activity”. Moreover, in data set [4], the “relative value based” value is reported as 0.19, the “amount of luminescence … heart” value stood at 9.67E+05 photons/sec, the “amount … kidney” value is reported as 6.33E+05 photons/sec and the “amount of luminescence … liver” value came to 2.33E+06 photons/sec. For the same molecule, in data set [4], the “amount of luminescence … lung” value was determined as 8.67E+05 photons/sec and the “amount … in each organ: spleen” value was determined as 2.00E+06 photons/sec.
Regarding `CCCCCCCCCCCCCCCCC(CCCCCCCCCCCCCCCC)C(=O)Oc1ccc(CC(=O)OCCSSCCOC(=O)C(C)CN(C)C)cc1` (stereo not drawn) [Example 13], in data set [1], the PdI came out at 0.086, the particle size was found to be 94 nm and the zeta potential is recorded as −10.2 mV. In data set [2], the pKa worked out at 6.3. Besides, in data set [3], the “cumulative luciferase luminescence intensity over 24 hr” value is 1.44E+05 RLU. In data set [4], the “relative value based” value stood at 0.19, the “amount of luminescence … heart” value is listed as 1.00E+06 photons/sec, the “amount … kidney” value amounted to 8.00E+05 photons/sec and the “amount of luminescence … liver” value is given as 5.00E+07 photons/sec. Moreover, in data set [4], the “amount of luminescence … lung” value was determined as 8.67E+05 photons/sec and the “amount … in each organ: spleen” value came to 2.00E+06 photons/sec.
Regarding `CCCCCCCCCCCCCCCCC(CCCCCCCCCCCCCCCC)C(=O)Oc1ccc(CC(=O)OCCSSCCOC(=O)OCCN(C)C)cc1` [Example 30], in data set [1], the PdI is reported as 0.080, the particle size is on record as 59 nm and the zeta potential was found to be 2.3 mV. Further, the pKa in data set [2] was determined as 6.4. In addition, in data set [3], the “cumulative luciferase luminescence intensity over 24 hr” value was determined as 1.35E+07 RLU and the “gene expression activity compared to Comparative Example” value is reported as “superior gene expression activity”. In data set [4], the “relative value based” value stood at 0.12, the “amount of luminescence … heart” value is reported as 6.17E+05 photons/sec, the “amount … kidney” value is listed as 3.80E+05 photons/sec and the “amount of luminescence … liver” value is 1.98E+07 photons/sec. Moreover, in data set [4], the “amount of luminescence … lung” value was 5.26E+05 photons/sec and the “amount … in each organ: spleen” value came to 1.24E+06 photons/sec.
